In paper PMC9151520 (Archives of Toxicology, 2022):
Where “and” joins values, the source holds several entries; their conditions need not be identical. Identical values can stand only once. Counter-ions that a name gives are not always drawn. Like-named read-outs stand apart in the source and are kept apart here.

Key:
[1] = test system: p53 signaling (p53RE-bla HCT-116 cells)
[2] = test system: p53 signaling (p53RE-bla HCT-116 cells); conditions: for EC50: read-out: p53 activation EC50, HLM
[3] = test system: p53 signaling (p53RE-bla HCT-116 cells); test: cells; type: cell-based
[4] = Homo sapiens, HCT-116, read-out: EC50, p53 activation, primary screening
[5] = Homo sapiens, HCT-116, read-out: Efficacy, p53 activation, primary screening
[6] = Homo sapiens, HCT-116, read-out: p53 activation EC50, cherry pick confirmation
[7] = Homo sapiens, HCT-116, read-out: p53 activation EC50, primary screening
[8] = Homo sapiens, HCT-116, read-out: p53 activation efficacy, cherry pick confirmation
[9] = Homo sapiens, HCT-116, read-out: p53 activation efficacy, primary screening
[10] = read-out: EC50, p53 activation, primary screening
[11] = Homo sapiens, HCT-116, read-out: Efficacy, p53 activation, cherry pick confirmation

Cn1cnc([N+](=O)[O-])c1Sc1ncnc2nc[nH]c12 [Azathioprine]
inactive: EC50, p53 activation, cherry pick confirmation [1] | EC50, p53 activation, primary screening [1] | Efficacy, p53 activation, cherry pick confirmation [1] | Efficacy, p53 activation, primary screening [1] | EC50, viability, cherry pick confirmation (p53RE-bla HCT-116 cells) | EC50, viability, primary screening (p53RE-bla HCT-116 cells) | Efficacy, viability, cherry pick confirmation (p53RE-bla HCT-116 cells) | Efficacy, viability, primary screening (p53RE-bla HCT-116 cells) | EC50, p53 activation, cherry pick confirmation [2] | EC50, p53 activation, primary screening [2] | Efficacy, p53 activation, cherry pick confirmation [2] | Efficacy, p53 activation, primary screening [2] | EC50, p53 activation, cherry pick confirmation [3] | Efficacy, p53 activation, cherry pick confirmation [3]
33.7 µM: EC50 [3, 4]
39.9%: Emax [3, 5]

CC(C)c1ccc2cc(C(C)C)ccc2c1 [2,6-Diisopropylnaphthalene]
inactive: Efficacy, p53 activation, cherry pick confirmation [1] | Efficacy, p53 activation, primary screening [1] | Efficacy, p53 activation, cherry pick confirmation [3]

CC(=O)Oc1ccc(C2(c3ccc(OC(C)=O)cc3)Oc3ccccc3NC2=O)cc1 [Bisoxatin acetate]
0.665 µM: EC50 [3, 6]
31.4%: Emax [3, 8]
63.9%: Emax [3, 9]
3.99 µM: EC50 [3, 7]
inactive: p53 activation EC50, cherry pick confirmation [1] | p53 activation EC50, primary screening [1] | p53 activation efficacy, cherry pick confirmation [1] | p53 activation efficacy, primary screening [1] | Viability EC50, cherry pick confirmation (p53RE-bla HCT-116 cells) | Viability EC50, primary screening (p53RE-bla HCT-116 cells) | Viability efficacy, cherry pick confirmation (p53RE-bla HCT-116 cells) | Viability efficacy, primary screening (p53RE-bla HCT-116 cells) | p53 activation EC50, cherry pick confirmation [2] | p53 activation EC50, primary screening [2] | p53 activation efficacy, cherry pick confirmation [2] | p53 activation efficacy, primary screening [2]

CO/C=C(/C(=O)OC)c1ccccc1COc1cccc(C(F)(F)F)n1 [Picoxystrobin]
inactive: p53 activation EC50, cherry pick confirmation [1] | p53 activation EC50, primary screening [1] | p53 activation efficacy, cherry pick confirmation [1] | p53 activation efficacy, primary screening [1] | Viability EC50, cherry pick confirmation (p53RE-bla HCT-116 cells) | Viability EC50, primary screening (p53RE-bla HCT-116 cells) | Viability efficacy, cherry pick confirmation (p53RE-bla HCT-116 cells) | Viability efficacy, primary screening (p53RE-bla HCT-116 cells) | p53 activation EC50, cherry pick confirmation [2] | p53 activation EC50, primary screening [2] | p53 activation efficacy, cherry pick confirmation [2] | p53 activation efficacy, primary screening [2]
42.314: p53 activation efficacy, primary screening [3]
12.5 µM: EC50 ([3]; read-out: p53 activation EC50, cherry pick confirmation)
51.0407: p53 activation efficacy, cherry pick confirmation [3]
4.78 µM: EC50 ([3]; read-out: p53 activation EC50, primary screening)

C[C@]12CC[C@@H]3c4ccc(O)cc4CC[C@H]3[C@@H]1CC[C@H]2O [17alpha-Estradiol]
inactive: p53 activation EC50, cherry pick confirmation [1] | p53 activation EC50, primary screening [1] | p53 activation efficacy, cherry pick confirmation [1] | p53 activation efficacy, primary screening [1] | Viability EC50, cherry pick confirmation (p53RE-bla HCT-116 cells) | Viability EC50, primary screening (p53RE-bla HCT-116 cells) | Viability efficacy, cherry pick confirmation (p53RE-bla HCT-116 cells) | Viability efficacy, primary screening (p53RE-bla HCT-116 cells) | p53 activation EC50, cherry pick confirmation [2] | p53 activation EC50, primary screening [2] | p53 activation efficacy, cherry pick confirmation [2] | p53 activation efficacy, primary screening [2] | p53 activation EC50, cherry pick confirmation [3] | p53 activation efficacy, cherry pick confirmation [3]
54.4%: Emax [3, 9]
12.3 µM: EC50 [3, 7]

COC(=O)c1nc(Cl)c(Cl)nc1N
21.5 µM: EC50 [3, 10]
118.088: Efficacy, p53 activation, cherry pick confirmation [3]
22.4 µM: EC50 [1, 10]
51.0133: Efficacy, p53 activation, primary screening [3]
inactive: EC50, p53 activation, cherry pick confirmation [1] | Efficacy, p53 activation, cherry pick confirmation [1] | EC50, viability, cherry pick confirmation (p53RE-bla HCT-116 cells) | EC50, viability, primary screening (p53RE-bla HCT-116 cells) | Efficacy, viability, cherry pick confirmation (p53RE-bla HCT-116 cells) | Efficacy, viability, primary screening (p53RE-bla HCT-116 cells) | EC50, p53 activation, cherry pick confirmation [2] | EC50, p53 activation, primary screening [2] | Efficacy, p53 activation, cherry pick confirmation [2]
24 µM: EC50 ([3]; read-out: EC50, p53 activation, cherry pick confirmation)

CCN(CC)C(=O)C(Cl)=C(C)OP(=O)(OC)OC [Phosphamidon]
2.35 µM and 3.43 µM: EC50 ([1]; read-out: p53 activation EC50, RLM)
inactive: Viability EC50, HLM (p53RE-bla HCT-116 cells) | Viability EC50, No MS (p53RE-bla HCT-116 cells) | Viability EC50, RLM (p53RE-bla HCT-116 cells) | Viability Efficacy, No MS (p53RE-bla HCT-116 cells) | p53 activation EC50, HLM [2] | p53 activation EC50, No MS [3] | p53 activation Efficacy, No MS [3]
5.82 µM: EC50 [2]
3.22 µM: EC50 [1]

COC1=CC(=O)C[C@@H](C)[C@]12Oc1c(Cl)c(OC)cc(OC)c1C2=O [Griseofulvin]
inactive: EC50, p53 activation, cherry pick confirmation [1] | EC50, p53 activation, primary screening [1] | Efficacy, p53 activation, cherry pick confirmation [1] | Efficacy, p53 activation, primary screening [1] | EC50, viability, cherry pick confirmation (p53RE-bla HCT-116 cells) | EC50, viability, primary screening (p53RE-bla HCT-116 cells) | Efficacy, viability, cherry pick confirmation (p53RE-bla HCT-116 cells) | Efficacy, viability, primary screening (p53RE-bla HCT-116 cells) | EC50, p53 activation, cherry pick confirmation [2] | EC50, p53 activation, primary screening [2] | Efficacy, p53 activation, cherry pick confirmation [2] | Efficacy, p53 activation, primary screening [2] | EC50, p53 activation, cherry pick confirmation [3] | Efficacy, p53 activation, cherry pick confirmation [3]
41.2%: Emax [3, 5]
36.3 µM: EC50 [3, 4]

NC(=O)c1ncn([C@@H]2O[C@H](CO)[C@@H](O)[C@H]2O)n1 [Ribavirin]
24.3 µM: EC50 [3, 7]
10.8 µM: EC50 [3, 6]
43.7%: Emax [3, 8]
31.4%: Emax [3, 9]
inactive: p53 activation EC50, cherry pick confirmation [1] | p53 activation EC50, primary screening [1] | p53 activation efficacy, cherry pick confirmation [1] | p53 activation efficacy, primary screening [1] | Viability EC50, cherry pick confirmation (p53RE-bla HCT-116 cells) | Viability EC50, primary screening (p53RE-bla HCT-116 cells) | Viability efficacy, cherry pick confirmation (p53RE-bla HCT-116 cells) | Viability efficacy, primary screening (p53RE-bla HCT-116 cells) | p53 activation EC50, cherry pick confirmation [2] | p53 activation EC50, primary screening [2] | p53 activation efficacy, cherry pick confirmation [2] | p53 activation efficacy, primary screening [2]

CC(=O)OC[C@H]1O[C@@H](n2ncc(=O)[nH]c2=O)[C@H](OC(C)=O)[C@@H]1OC(C)=O [6-Azaribine]
0.603 µM: EC50 [3, 6]
inactive: p53 activation EC50, cherry pick confirmation [1] | p53 activation EC50, primary screening [1] | p53 activation efficacy, cherry pick confirmation [1] | p53 activation efficacy, primary screening [1] | Viability EC50, cherry pick confirmation (p53RE-bla HCT-116 cells) | Viability EC50, primary screening (p53RE-bla HCT-116 cells) | Viability efficacy, cherry pick confirmation (p53RE-bla HCT-116 cells) | Viability efficacy, primary screening (p53RE-bla HCT-116 cells) | p53 activation EC50, cherry pick confirmation [2] | p53 activation EC50, primary screening [2] | p53 activation efficacy, cherry pick confirmation [2] | p53 activation efficacy, primary screening [2]
79.7%: Emax [3, 8]
0.432 µM: EC50 [3, 7]
60.2%: Emax [3, 9]

O=C1CCCc2c1cc1ccc3cccc4ccc2c1c34 [9,10-Dihydrobenzo[a]pyren-7(8H)-one]
inactive: p53 activation EC50, RLM [1] | p53 activation Efficacy, RLM [1] | Viability EC50, HLM (p53RE-bla HCT-116 cells) | Viability EC50, No MS (p53RE-bla HCT-116 cells) | Viability EC50, RLM (p53RE-bla HCT-116 cells) | Viability Efficacy, HLM (p53RE-bla HCT-116 cells) | Viability Efficacy, No MS (p53RE-bla HCT-116 cells) | Viability Efficacy, RLM (p53RE-bla HCT-116 cells) | p53 activation EC50, HLM [2]
9.29 µM: EC50 [2]

Irinotecan hydrochloride
70.7017: Efficacy, p53 activation, primary screening [3]
4.18 µM: EC50 [3, 10]
86.836: Efficacy, p53 activation, cherry pick confirmation [3]

O=C(c1ccc(O)c(O)c1)c1ccc(O)cc1O [2,3',4,4'-Tetrahydroxybenzophenone]
inactive: p53 activation efficacy, cherry pick confirmation [3]

CSc1ccc2c(c1)N(CCC1CCCCN1C)c1ccccc1S2 (stereo not drawn) [Thioridazine hydrochloride]
64.5%: Emax [3, 5]
51.8%: Emax [3, 11]
inactive: EC50, p53 activation, cherry pick confirmation [1] | EC50, p53 activation, primary screening [1] | Efficacy, p53 activation, cherry pick confirmation [1] | Efficacy, p53 activation, primary screening [1] | EC50, p53 activation, cherry pick confirmation [2] | EC50, p53 activation, primary screening [2] | Efficacy, p53 activation, cherry pick confirmation [2] | Efficacy, p53 activation, primary screening [2]

Phenylmercuric acetate
66.4107% and 63.4503%: p53 activation Efficacy, No MS [3]
12.5 µM: EC50 [2]
inactive: p53 activation EC50, RLM [1] | p53 activation Efficacy, RLM [1] | p53 activation EC50, HLM [2]

Oc1c(Cl)cc(Cl)cc1Sc1cc(Cl)cc(Cl)c1O [Bithionol]
74%: Emax [3, 11]
39.6 µM: EC50 [3, 10]
20.3 µM: EC50 ([3]; Homo sapiens, HCT-116, read-out: EC50, p53 activation, cherry pick confirmation)
inactive: EC50, p53 activation, cherry pick confirmation [1] | EC50, p53 activation, primary screening [1] | Efficacy, p53 activation, cherry pick confirmation [1] | Efficacy, p53 activation, primary screening [1] | EC50, p53 activation, cherry pick confirmation [2] | EC50, p53 activation, primary screening [2] | Efficacy, p53 activation, cherry pick confirmation [2] | Efficacy, p53 activation, primary screening [2]
93.9867: Efficacy, p53 activation, primary screening [3]
